From patent publication US6569843B1, “Steroidal sapogenins for the control of coccidiosis in animals” (priority 1999, dated 2003)
Where “and” joins values, the source holds several entries; their conditions need not be identical. Identical values can stand only once.

Key:
Assay type in all cases: in vivo
E. maxima [1] = assay: 8 day coccidial challenge study, middle lesion score (Example 4); conditions: day 8
[2] = system: mixture of E. acervulina, E. maxima and E. tenella; assay: 8 day coccidial challenge study in broiler chicks, mortality, weight gain, feed efficiency (Example 4)
E. acervulina [3] = assay: 8 day coccidial challenge study, upper lesion score (Example 4); conditions: day 8
E. tenella [4] = assay: 8 day coccidial challenge study, cecal lesion score (Example 4); conditions: day 8
E. tenella [5] = assay: 13 day coccidial challenge study, cecal lesion score (Example 3); conditions: day 13
From the text: (§1) Birds were fed a standard corn soybean meal diet and water ad libitum. Birds were placed in 4 foot by 5 foot pens at the rate of 50 birds per pen. On day 6 all birds, except the negative control, were orally challenged with an inoculum comprised of a mixture of E. acervulina, E. maxima and E. tenella. Since each of these three specie of Eimeria produce intestinal lesions in distinctly different regions of the intestinal their effects can be partitioned when scoring the birds. On day 13 all birds were sacrificed by cervical dislocation and the intestines scored for coccidial lesions by the standard Johnson and Reid method.

E. acervulina [6] = assay: 13 day coccidial challenge study, upper intestinal lesion score (Example 3); conditions: day 13
From the text: as §1

E. maxima [7] = assay: 13 day coccidial challenge study, middle intestinal lesion score (Example 3); conditions: day 13
From the text: as §1

[8] = system: mixture of E. acervulina, E. maxima and E. tenella; assay: 13 day coccidial challenge study in broiler chicks, weight and feed conversion (Example 3)
From the text: as §1

[9] = system: mixed culture of E. acervulina, E. maxima and E. tenella; assay: 14 day coccidial challenge study, steroidal sapogenin and antibiotic compatibility in chicks (Example 5); conditions: SS at 3.3 ppm where included, antibiotic doses not given; for Lesion Scores, Cecal / Lesion Scores, Middle / Lesion Scores, Upper: day 14

With `CO[C@@H]1[C@@H](OC)[C@H](C)[C@@](O)(CC(=O)O)O[C@H]1[C@H](C)[C@H]1O[C@@]2(CC[C@@](C)([C@H]3CC[C@@](C)([C@@H]4O[C@@H]([C@H]5O[C@](C)(O)[C@H](C)C[C@@H]5C)C[C@@H]4O[C@@H]4C[C@H](OC)[C@@H](OC)[C@H](C)O4)O3)O2)C[C@H](O)[C@H]1C` [Maduramicin] the “Lesion Scores, Middle, E. maxima” value (E. maxima [1]; 5 ppm, two different sources) was 2.2667 b and 2.3000 b, the Feed/Gain ([2]; 5 ppm, two different sources) was 1.8503 cd and 1.8463 cd and the “Mortality, %” value ([2]; 5 ppm, two different sources) was 6.67 a % and 0 a %. The “Weight Gain, gm” value ([2]; 5 ppm, two different sources) was 266.67 d gm and 269.33 d gm, the “Lesion Scores, Upper, E. acervulina” value (E. acervulina [3]; 5 ppm, two different sources) was 2.1000 b and 2.3667 b and the “Lesion Scores, Cecal, E. tenella” value (E. tenella [4]; 5 ppm, two different sources) was 2.6000 bc and 2.3333 bc.

In the case of `CC[C@@]1([C@@H]2O[C@@H]([C@H]3O[C@@](O)(CO)[C@H](C)C[C@@H]3C)C[C@@H]2C)CC[C@H]([C@]2(C)CC[C@]3(C[C@H](O)[C@@H](C)[C@@H]([C@@H](C)[C@@H](OC)[C@H](C)C(=O)O)O3)O2)O1` [Monensin], the “Average intestinal lesion score, Cecal, tenella” value (E. tenella [5]; 100 g/ton) is reported as 1.64, the “Average intestinal lesion score, Upper, acervulina” value (E. acervulina [6]; 100 g/ton) is reported as 1.40 and the “Lesion Scores, Middle, E. maxima” value (E. maxima [1]; 90 gm/ton) is reported as 2.4333 bc. For the same compound, the “Average intestinal lesion score, Middle, maxima” value (E. maxima [7]; 100 g/ton) was 1.58, the Feed/Gain ([2]; 90 gm/ton) was 1.9033 cd and the “Mortality, %” value ([2]; 90 gm/ton) was 3.33 a %. The “Weight Gain, gm” value ([2]; 90 gm/ton) was 258.67 d gm, the “Lesion Scores, Upper, E. acervulina” value (E. acervulina [3]; 90 gm/ton) was 1.9667 b and the “Lesion Scores, Cecal, E. tenella” value (E. tenella [4]; 90 gm/ton) was 2.9667 bc. The Feed/Gain ([8]; 100 g/ton) was 1.843 and the “Weight, gm (average bird weight)” value ([8]; 100 g/ton) was 233.0 gm.

Bacitracin Zinc was tested, and the Feed/Gain [9] was 1.833, the “Weight, gm” value [9] was 259.7 gm and the “Lesion Scores, Cecal” value [9] was 1.50. For the same compound, the “Lesion Scores, Middle” value [9] was 2.08 and the “Lesion Scores, Upper” value [9] was 1.50.

Virginiamycin was tested, and the Feed/Gain [9] was 1.891, the “Weight, gm” value [9] was 256.3 gm and the “Lesion Scores, Cecal” value [9] was 1.17. For the same compound, the “Lesion Scores, Middle” value [9] was 1.58 and the “Lesion Scores, Upper” value [9] was 1.17.

For `CC[C@@H](C(=O)[C@@H](C)[C@@H](O)[C@H](C)[C@@H]1O[C@@H]([C@@H](CC)C(=O)O)CC[C@@H]1C)[C@H]1O[C@]2(C=C[C@@H](O)[C@]3(CC[C@@](C)([C@H]4CC[C@](O)(CC)[C@H](C)O4)O3)O2)[C@H](C)C[C@@H]1C` [Salinomycin], the “Average intestinal lesion score, Cecal, tenella” value (E. tenella [5]; 60 g/ton) was 0.68, the “Average intestinal lesion score, Upper, acervulina” value (E. acervulina [6]; 60 g/ton) was 0.76 and the “Lesion Scores, Middle, E. maxima” value (E. maxima [1]; 60 gm/ton) was 2.9000 bc. For the same compound, the “Average intestinal lesion score, Middle, maxima” value (E. maxima [7]; 60 g/ton) was 1.22, the Feed/Gain ([2]; 60 gm/ton) was 1.8473 cd and the “Mortality, %” value ([2]; 60 gm/ton) was 6.67 a %. For the same compound, the “Weight Gain, gm” value ([2]; 60 gm/ton) was 269.67 d gm, the “Lesion Scores, Upper, E. acervulina” value (E. acervulina [3]; 60 gm/ton) was 2.1333 b and the “Lesion Scores, Cecal, E. tenella” value (E. tenella [4]; 60 gm/ton) was 2.9000 bc. The Feed/Gain ([8]; 60 g/ton) was 1.624 and the “Weight, gm (average bird weight)” value ([8]; 60 g/ton) was 246.3 gm.
